Experimental data published in patent publication US5766896A, “Method of producing iodine by use of a copper containing oxidase enzyme” (Novo Nordisk Biotech Inc., priority 1994, dated 1998).
Like-named read-outs stand apart in the source and are kept apart here.

Assays:
[1] = target: T1, recombinant Myceliophthora thermophila laccase (r-MtL) (Thermothelomyces thermophilus, UniProt G2QG31); assay: r-MtL-catalyzed ABTS oxidation; assay type: biochemical
T1 sequence (G2QG31 48-602): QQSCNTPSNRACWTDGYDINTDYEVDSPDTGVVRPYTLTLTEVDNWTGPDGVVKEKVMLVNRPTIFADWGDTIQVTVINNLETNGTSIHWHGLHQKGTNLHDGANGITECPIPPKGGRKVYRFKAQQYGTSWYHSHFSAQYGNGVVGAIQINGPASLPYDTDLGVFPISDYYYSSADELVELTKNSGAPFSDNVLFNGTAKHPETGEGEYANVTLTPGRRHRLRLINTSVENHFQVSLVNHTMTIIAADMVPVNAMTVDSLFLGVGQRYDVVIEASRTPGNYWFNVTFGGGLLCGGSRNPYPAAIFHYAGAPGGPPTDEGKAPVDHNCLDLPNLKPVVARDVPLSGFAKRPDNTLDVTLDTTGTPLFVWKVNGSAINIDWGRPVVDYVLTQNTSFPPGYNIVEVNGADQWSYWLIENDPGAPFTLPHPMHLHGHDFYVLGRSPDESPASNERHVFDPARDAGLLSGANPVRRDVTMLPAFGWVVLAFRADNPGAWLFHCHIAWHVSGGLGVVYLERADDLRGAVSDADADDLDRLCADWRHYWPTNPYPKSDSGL
Procedure: (§1) Enzymatic assays for determining oxidation of I^- are conducted in B & R buffer containing from 1-20 nM MtL (subunit concentration) and 10 to 200 mM Nal at 20° C. for 5-10 minutes. The extinction coefficient of 26 mM^-1 cm^-1 is used to calculate rate. Oxidation of I^- is spectrally monitored at 340 or 353 nm and the spectrum of the oxidation product is found identical to that of I3 -(Hosoya, Biochem. (Tokyo) 53: 381, 1963). Kinetic parameters are extracted by a non-linear regression fitting (Prism, GraphPad) of rate and concentration data to the equation of rate=Vmax *[substrate]/Km +[substrate].

[2] = tested on: tyrosinase (mushroom); conditions: pH 2.7
From the text: Chemicals used as buffers and substrates are commercial products of at least reagent grade. Ascorbate oxidase (Cucurbita species), ceruloplasmin (porcine plasma), bilirubin oxidase (Myrothecium verrucaria) and tyrosinase (mushroom) are purchased from Sigma and used as received. The contents of the enzymes in lyophilized powder or solution are confirmed by uv-visible absorption and published extinction coefficients. The stated activity of ascorbate oxidase is confirmed with ascorbic acid.
The extinction coefficient of 36 mM^-1 cm^-1 is used to calculate the rate. Spectroscopic assays are conducted on either a spectrophotometer (Shimadzu UV160) or a microplate reader (Molecular Devices). Britton & Robinson (B & R) buffers are prepared according to a standard protocol (Quelle, Biochemisches Taschenbuch, H. M. Raven, II. Teil, S.93 u. 102, 1964).

[3] = target: T2, bilirubin oxidase (Myrothecium verrucaria) (Albifimbria verrucaria, UniProt Q12737); assay: bilirubin oxidase-catalyzed I^- oxidation; assay type: biochemical; conditions: optimal pH of 4.1
T2 construct: purchased Sigma
T2 sequence (Q12737 39-572): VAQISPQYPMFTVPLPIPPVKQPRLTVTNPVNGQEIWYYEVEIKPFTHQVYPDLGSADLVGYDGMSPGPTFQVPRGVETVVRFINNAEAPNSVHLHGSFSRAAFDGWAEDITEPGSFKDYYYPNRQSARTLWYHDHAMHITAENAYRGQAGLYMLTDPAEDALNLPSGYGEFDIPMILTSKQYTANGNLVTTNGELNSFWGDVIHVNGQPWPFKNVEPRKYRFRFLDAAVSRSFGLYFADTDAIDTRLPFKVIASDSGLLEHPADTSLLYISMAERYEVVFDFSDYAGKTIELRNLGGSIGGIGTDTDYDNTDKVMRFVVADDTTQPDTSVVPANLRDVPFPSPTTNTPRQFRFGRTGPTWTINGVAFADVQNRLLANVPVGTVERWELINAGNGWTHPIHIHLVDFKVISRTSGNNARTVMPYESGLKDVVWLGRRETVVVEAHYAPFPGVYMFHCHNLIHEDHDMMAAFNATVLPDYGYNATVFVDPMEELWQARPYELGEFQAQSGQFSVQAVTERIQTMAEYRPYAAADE
Procedure: as §1
(§2) Ascorbate oxidase, ceruloplasmin, bilirubin oxidase, and tyrosinase at concentrations up to μM level are also tested under similar conditions for I^- oxidation catalysis.

[4] = tested on: tyrosinase (mushroom); assay: tyrosinase-catalyzed I^- oxidation; assay type: biochemical; conditions: optimal pH of 2.7
Procedure: as §1, §2

[5] = target: T1, recombinant Myceliophthora thermophila laccase (r-MtL); assay: r-MtL-catalyzed I^- oxidation; assay type: biochemical; conditions: pH 3.4
Procedure: as §1

[6] = target: Myceliophthora laccase (Thermothelomyces thermophilus, UniProt G2QG31); assay: chloride inhibition of Myceliophthora laccase; assay type: biochemical; conditions: read-out: inhibition constant (chloride)

Compound: CCn1c(=NN=c2sc3cc(S(=O)(=O)O)ccc3n2CC)sc2cc(S(=O)(=O)O)ccc21 [ABTS, 2,2'-azinobis-(3-ethylbenzthiazoline-6-sulfonic acid)]
- Km of ABTS, fold smaller in comparison with I^- [1]: ~ 10^3 fold
- Vmax of ABTS, fold larger in comparison with I^- [1]: ~ 10^3 fold
- Vmax (ABTS oxidation) [2]: 3.1±0.1 turnover per minute
- Km ([2]; read-out: Km (ABTS)): 0.18 ± 0.01 mM

Compound: I [I^-, iodide]
- Vmax (I^- oxidation) [3]: 1.7±0.1 turnover per minute
- Km [4]: ~100 mM
- Vmax (I^- oxidation) [4]: ca. 0.1 turnover per minute
- Vmax (I^- oxidation) [5]: 2.7±0.2 turnover per minute

Compound: Cl [chloride]
- Ki [6]: ~70 mM
